In PubChem BioAssay (NCI):
Several values for one entry are separate records, joined by “and”; a condition that tells them apart may be missing. Equal values may be shown once.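 Method: 48-hour compound exposure of cells in 96-well plates, five concentrations, linear interpolation of endpoints. GI50 is the concentration that inhibits growth by half. TGI: total growth inhibition.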

Experiments:
Test in all cases: NCI anticancer screen, dose series, 48 h
M14 melanoma = test system: M14 melanoma
HOP-92 NSCLC = test system: HOP-92 NSCLC
SR leukemia = test system: SR leukemia
COLO 205 colon = test system: COLO 205 colon
UACC-62 melanoma = test system: UACC-62 melanoma
HCT-116 colon = test system: HCT-116 colon
OVCAR-8 ovarian = test system: OVCAR-8 ovarian
MOLT-4 leukemia = test system: MOLT-4 leukemia

Compound | GI50 (M14 melanoma) | TGI (M14 melanoma) | GI50 (HOP-92 NSCLC) | TGI (HOP-92 NSCLC) | GI50 (SR leukemia) | TGI (SR leukemia) | GI50 (COLO 205 colon) | TGI (COLO 205 colon) | GI50 (UACC-62 melanoma) | TGI (UACC-62 melanoma) | GI50 (HCT-116 colon) | TGI (HCT-116 colon) | GI50 (OVCAR-8 ovarian) | TGI (OVCAR-8 ovarian) | GI50 (MOLT-4 leukemia) | TGI (MOLT-4 leukemia)
C/C(=C(/c1ccccc1)c1ccc(OCC(O)CNCCN2CCOCC2)cc1)c1ccccc1 (stereo not drawn) | 1880 nM | 3.85 µM | 1500 nM | 4.81 µM | 1660 nM | 4.02 µM | 1950 nM | 4.17 µM | 1930 nM | 3.82 µM | 1860 nM | 4.02 µM | 3740 nM | 15.1 µM | 2130 nM | 5.41 µM
ClCc1cccc(Cn2cnc3c(Cl)nc(Cl)nc32)c1 | 1790 nM | 3.41 µM | 1840 nM | 3.63 µM | 2490 nM | > 100 µM | 2220 nM | 5.39 µM | 1840 nM | 3.44 µM | 1640 nM | 3.12 µM | 1810 nM | 3.51 µM | 3350 nM | > 100 µM
CCSc1ccc([C@@H]2[C@@H](O)C(=O)N2c2cc(OC)c(OC)c(OC)c2)cc1 | < 10 nM | 15.8 µM | – | 42.1 µM | < 10 nM | 17.4 µM | 16.3 nM | 0.072 µM | < 10 nM | 20.1 µM | < 11 nM | 3.06 µM | 21.1 nM | 16.8 µM | 38.4 nM | 17.7 µM
CCCCCCNCCCNc1c2cc(OC)ccc2nc2cccc([N+](=O)[O-])c12 | 143 nM | 0.285 µM and 0.293 µM | 239 nM | 0.534 µM and 0.655 µM | 121 nM | – | 143 nM | 0.648 µM | 186 nM | 0.305 µM and 0.412 µM | 38.4 nM | 0.155 µM and 1.01 µM | 236 nM and 105 nM | 2.45 µM and 0.644 µM | 51.4 nM | –
CCn1cc(/C=C2\Oc3cc(OCC#N)ccc3C2=O)c2cc(OC)ccc21 | 119 nM | > 100 µM | 11200 nM | 68.6 µM | 102 nM | > 100 µM | 348 nM | 4.12 µM | 171 nM | > 53.4 µM | 143 nM | > 100 µM | 530 nM | > 100 µM | 187 nM | > 100 µM
C=C(CN1CCc2c([nH]c3ccccc23)C1)c1ccc(C(=O)Nc2ccccc2N)cc1 | 4130 nM | 14.7 µM | 1660 nM | 11.4 µM | 622 nM | 50 µM | 6350 nM | 20.9 µM | 1590 nM | 7.43 µM | 2190 nM | 32.9 µM | 1900 nM | 14.7 µM | 116 nM | 0.405 µM
Clc1ccc(/C=C/c2ccc3ccccc3n2)cc1 | 298 nM | 1.01 µM | 2820 nM | > 29.9 µM | 443 nM | 4.12 µM | 1460 nM | 6.73 µM | 1470 nM | > 100 µM | 399 nM | > 100 µM | 1060 nM | > 100 µM | 3010 nM | > 100 µM
COc1ccc2c(c1)C(=O)/C(=C/c1cccc(OCC(=O)Nc3nc(C)c(C)s3)c1)O2 | 187 nM | 0.426 µM | 18.6 nM | 0.0562 µM | 18.4 nM | 0.0364 µM | 752 nM | 2.48 µM | 1970 nM | 7.98 µM | 170 nM | 0.564 µM | 647 nM | 12.9 µM | 155 nM | 0.369 µM
COc1cc(C2=NN(C(C)=O)C(c3cc(OC)c(OC)c(OC)c3)C2)ccc1O (stereo not drawn) | 342 nM | > 100 µM | 67000 nM | > 100 µM | 98.5 nM | – | 274 nM | 1.05 µM | 471 nM | > 100 µM | 385 nM | > 73.6 µM | 619 nM | > 100 µM | 381 nM | > 100 µM
COc1cc([C@@H]2c3cc4c(cc3[C@H](OC(C)=O)[C@H]3COC(=O)[C@@H]23)OCO4)cc(OC)c1OC | 242 nM | 5.3 µM | 2550 nM | > 100 µM | 153 nM | > 100 µM | 272 nM | 0.678 µM | 405 nM | > 100 µM | 290 nM | 2.63 µM | 469 nM | > 100 µM | 438 nM | > 100 µM
CSc1ncnc2c1ncn2CC(=O)C1CCC2C3CCC4=CC(=O)CCC4(C)C3CCC12C (stereo not drawn) | – | 8.88 µM | – | > 88.3 µM | – | 5.56 µM | – | 14.4 µM | – | 14 µM | – | 59.2 µM | – | > 40.7 µM | – | 4.93 µM
O=C1/C(=C\c2ccco2)Oc2ccccc21 | – | > 100 µM | – | > 100 µM | – | > 100 µM | – | > 100 µM | – | > 100 µM | – | > 100 µM | – | > 100 µM | – | > 100 µM
c1ccc(-c2nc3n(c2-c2ccc4c(c2)OCO4)CCC3)nc1 | 6770 nM | > 20.3 µM | 3480 nM | 20.8 µM | 9490 nM | > 25 µM | 9150 nM | > 25 µM | 5310 nM | 16.2 µM | 8160 nM | > 25 µM | 6340 nM | > 25 µM | 6630 nM | > 21.4 µM
